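These data come from cells grown in 96-well plates and exposed to compound for 48 hours at five concentrations. GI50 = concentration required for 50% inhibition of growth. TGI: total growth inhibition.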
How the values were obtained:
Experiment in all cases: inhibition of tumour cell growth, NCI panel, 48 h
[1] = test system: OVCAR-8 ovarian
[2] = test system: NCI-H460 lung
[3] = test system: OVCAR-3 ovarian
[4] = test system: RXF 393 renal
[5] = test system: HOP-92 NSCLC
[6] = test system: NCI-H522 lung
[7] = test system: HCT-116 colon
[8] = test system: KM12 colon
[9] = test system: IGROV1 ovarian
[10] = test system: T-47D breast
[11] = test system: MALME-3M melanoma
[12] = test system: SK-OV-3 ovarian
[13] = test system: NCI-H226 lung
[14] = test system: SF-295 CNS
[15] = test system: COLO 205 colon
[16] = test system: U251 CNS
[17] = test system: PC-3 prostate
[18] = test system: MCF7 breast
[19] = test system: MOLT-4 leukemia
[20] = test system: TK-10 renal
[21] = test system: SK-MEL-2 melanoma
[22] = test system: SF-539 CNS
[23] = test system: SW-620 colon
[24] = test system: HL-60(TB) leukemia
[25] = test system: 786-0 renal
[26] = test system: LOX IMVI melanoma
[27] = test system: MDA-MB-231 breast
[28] = test system: BT-549 breast
[29] = test system: RPMI-8226 leukemia
[30] = test system: OVCAR-4 ovarian
[31] = test system: ACHN renal
[32] = test system: OVCAR-5 ovarian
[33] = test system: CCRF-CEM leukemia
[34] = test system: A498 renal
[35] = test system: K-562 leukemia
[36] = test system: MDA-MB-435
[37] = test system: UO-31 renal
[38] = test system: DU-145 prostate
[39] = test system: SN12C renal
[40] = test system: NCI/ADR-RES ovarian
[41] = test system: EKVX NSCLC
[42] = test system: HS 578T breast
[43] = test system: SK-MEL-5 melanoma
[44] = test system: HCC-2998 colon
[45] = test system: HOP-62 NSCLC
[46] = test system: SK-MEL-28 melanoma
[47] = test system: M14 melanoma
[48] = test system: HT29 colon
[49] = test system: NCI-H23 lung
[50] = test system: A549 NSCLC
[51] = test system: SNB-19 CNS
[52] = test system: SNB-75 CNS
[53] = test system: UACC-257 melanoma
[54] = test system: HCT-15 colon
[55] = test system: SR leukemia
[56] = test system: UACC-62 melanoma
[57] = test system: SF-268 CNS

With `COc1ccc2c(c1OC)OC[C@@H](C1=CC(=O)C=C(O)C1=O)C2` the TGI [1] was 69.3 µM, the TGI [2] was 27.4 µM and the TGI [3] was 26.3 µM. For the same compound, the TGI [4] was 19.1 µM, the TGI [5] was 4.12 µM and the TGI [6] was 8.9 µM. It also gave a TGI [7] of 17.4 µM, a TGI [8] of 27.5 µM and a TGI [9] of 25.2 µM. It also gave a TGI [10] of 20.3 µM, a TGI [11] of 24.7 µM and a TGI [12] of 30.3 µM. For the same compound, the TGI [13] was 46.7 µM, the TGI [14] was 30.7 µM and the TGI [15] was 43.3 µM. The TGI [16] was 24.5 µM, the TGI [17] was 26.8 µM and the TGI [18] was 27 µM. The TGI [19] was 5.31 µM, the TGI [20] was 27.3 µM and the TGI [21] was 29 µM. For the same compound, the TGI [22] was 26.8 µM, the TGI [23] was 26.2 µM and the TGI [24] was 1.88 µM. It also gave a TGI [25] of 16.9 µM, a TGI [26] of 13.1 µM and a TGI [27] of 10.4 µM. For the same compound, the TGI [28] was 26 µM, the TGI [29] was 5.18 µM and the TGI [30] was 24.1 µM. For the same compound, the TGI [31] was 11.3 µM, the TGI [32] was 40 µM and the TGI [33] was 3.81 µM. The TGI [34] was 32.1 µM, the TGI [35] was 11.8 µM and the TGI [36] was 23.9 µM. It also gave a TGI [37] of 25.9 µM, a TGI [38] of 29.3 µM and a TGI [39] of 37 µM. For the same compound, the TGI [40] was 79.1 µM, the TGI [41] was 18.3 µM and the TGI [42] was 60.1 µM. For the same compound, the TGI [43] was 27 µM, the TGI [44] was 32.3 µM and the TGI [45] was 64.5 µM. The TGI [46] was greater than 58.5 µM, the TGI [47] was 26.8 µM and the TGI [48] was 55.8 µM. It also gave a TGI [49] of 33.8 µM, a TGI [50] of 35.8 µM and a TGI [51] of 34.7 µM. For the same compound, the TGI [52] was 23.6 µM, the TGI [53] was 26.1 µM and the TGI [54] was 31 µM. For the same compound, the TGI [55] was 19.2 µM, the TGI [56] was 25.1 µM and the TGI [57] was 38.1 µM.

Compound `CCCCCCCCCCCCCCCC(=O)Nc1ccn([C@@H]2O[C@H](CO)[C@@H](O)[C@@H]2C#N)c(=O)n1` has a GI50 [1] of 15.4 µM, a TGI [1] greater than 100 µM and a GI50 [2] of 2.38 µM. It also gave a TGI [2] of 24.5 µM, a GI50 [3] greater than 100 µM and a TGI [3] greater than 100 µM. For the same compound, the GI50 [4] was greater than 77.9 µM, the TGI [4] was greater than 100 µM and the GI50 [5] was 5.52 µM. For the same compound, the TGI [5] was greater than 100 µM, the GI50 [6] was 13.1 µM and the TGI [6] was 33.3 µM. For the same compound, the GI50 [7] was 4.77 µM, the TGI [7] was greater than 80.6 µM and the GI50 [8] was 33.7 µM. It also gave a TGI [8] greater than 100 µM, a GI50 [9] of 33.9 µM and a TGI [9] greater than 100 µM. It also gave a GI50 [10] of 33.2 µM, a TGI [10] greater than 88.7 µM and a GI50 [11] of 17.3 µM. The TGI [11] was 60.4 µM, the GI50 [12] was 45.6 µM and the TGI [12] was greater than 100 µM. The GI50 [13] was 30.7 µM, the TGI [13] was greater than 100 µM and the GI50 [14] was 21.5 µM. For the same compound, the TGI [14] was greater than 100 µM, the GI50 [15] was 17.6 µM and the TGI [15] was greater than 100 µM. For the same compound, the GI50 [16] was 20.8 µM, the TGI [16] was greater than 100 µM and the GI50 [17] was 35.9 µM. The TGI [17] was greater than 100 µM, the GI50 [18] was 3.29 µM and the TGI [18] was 30 µM. The TGI [19] was 26.2 µM, the GI50 [20] was greater than 100 µM and the TGI [20] was greater than 100 µM. The GI50 [21] was 42.3 µM, the TGI [21] was greater than 100 µM and the GI50 [22] was greater than 100 µM. The TGI [22] was greater than 100 µM, the GI50 [23] was 26.7 µM and the TGI [23] was greater than 100 µM. The GI50 [24] was 21.1 µM, the TGI [24] was greater than 100 µM and the GI50 [25] was 10.1 µM. The TGI [25] was greater than 100 µM, the GI50 [26] was 10.2 µM and the TGI [26] was 37.9 µM. For the same compound, the GI50 [27] was 25.9 µM, the TGI [27] was greater than 96.4 µM and the GI50 [28] was 34.9 µM. It also gave a TGI [28] greater than 100 µM, a GI50 [29] of 49.8 µM and a TGI [29] greater than 100 µM. It also gave a GI50 [30] of 36.4 µM, a TGI [30] greater than 100 µM and a GI50 [31] of 8.76 µM. The TGI [31] was greater than 100 µM, the GI50 [32] was 51.6 µM and the TGI [32] was greater than 100 µM. It also gave a TGI [33] greater than 100 µM, a GI50 [34] greater than 82 µM and a TGI [34] greater than 100 µM. The GI50 [35] was 14.6 µM, the TGI [35] was greater than 52.4 µM and the GI50 [36] was 39.5 µM. It also gave a TGI [36] greater than 100 µM, a GI50 [37] of 14.5 µM and a TGI [37] greater than 100 µM. For the same compound, the GI50 [38] was 9.03 µM, the TGI [38] was greater than 100 µM and the GI50 [39] was 29.7 µM. For the same compound, the TGI [39] was greater than 100 µM, the GI50 [40] was 18.4 µM and the TGI [40] was greater than 100 µM. The GI50 [41] was greater than 52.7 µM, the TGI [41] was greater than 100 µM and the GI50 [42] was greater than 100 µM. The TGI [42] was greater than 100 µM, the GI50 [43] was 15.2 µM and the TGI [43] was 28.8 µM. For the same compound, the GI50 [44] was 14.5 µM, the TGI [44] was greater than 100 µM and the GI50 [45] was 20.5 µM. For the same compound, the TGI [45] was greater than 100 µM, the GI50 [46] was 33.1 µM and the TGI [46] was greater than 100 µM. The GI50 [47] was 11.8 µM, the TGI [47] was greater than 83.6 µM and the GI50 [48] was 35.8 µM. The TGI [48] was greater than 100 µM, the GI50 [49] was 12 µM and the TGI [49] was greater than 84.5 µM. For the same compound, the GI50 [50] was 11.7 µM, the TGI [50] was 30.3 µM and the GI50 [51] was 6.02 µM. It also gave a TGI [51] greater than 100 µM, a GI50 [52] greater than 58.6 µM and a TGI [52] greater than 100 µM. The GI50 [53] was 46.3 µM, the TGI [53] was greater than 100 µM and the GI50 [54] was 50.8 µM. For the same compound, the TGI [54] was greater than 100 µM, the GI50 [55] was 8.01 µM and the TGI [55] was 98.1 µM. It also gave a GI50 [56] of 17.2 µM, a TGI [56] greater than 100 µM and a GI50 [57] of 30.4 µM. For the same compound, the TGI [57] was greater than 100 µM.

Source: PubChem BioAssay (NCI)
